Source: ChEMBL document CHEMBL1201862, “PubChem BioAssay data set” (2004)
Calls of active or inactive are those of the source.

Legend:
BJ [1] = test: BJ-TERT fibroblast viability loss – cell-based, RAS-independent, luminescence, dose response (AID 1933); assay type: functional; conditions: Homo sapiens
BJ [2] = test: cells; assay type: functional, cell-based; conditions: Homo sapiens
BJ [3] = test: BJ-TERT-LT-ST fibroblast viability loss – cell-based, RAS-independent, luminescence, dose response (AID 1935); assay type: functional; conditions: Homo sapiens;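 also: BJ fibroblasts immortalized with TERT plus LT and ST oncogenes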
[4] = DRD fibroblast viability loss – cell-based, non-viral oncogenic, luminescence, dose response (AID 1934); assay type: functional; conditions: Homo sapiens
BJ [5] = test: growth inhibition of engineered Ras-driven BJ cells – cell-based, alamar blue fluorescence, cherrypicked samples, dose response (AID 2631); assay type: functional; conditions: Homo sapiens;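 also: confirmatory dose-response assay in RAS-dependent BJ fibroblasts engineered with TERT, LT and ST, with cytotoxicity read by fluorescence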
[6] = NIH-3T3 fibroblast cytotoxicity, dose response, cytotoxicity control, cell-based, fluorescence, Alamar Blue, secondary assay (AID 2327); assay type: functional;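 also: NIH-3T3 mouse fibroblasts cultured with fluconazole at 8 µg/mL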
[7] = fluconazole-exposed Candida albicans growth modulators – fluorescence, retest, confirmation (AID 2467); assay type: functional, cell-based
[8] = microbe, parasite or virus in culture; assay type: functional; conditions: Mycobacterium tuberculosis
[9] = molecular target: Serine/threonine-protein phosphatase (Candida dubliniensis (strain CD36 / CBS 7987 / NCPF 3949 / NRRLY-17841) (Yeast), UniProt B9W6M3); test: blockers of CaCl2-induced CDRE-lacZ signaling – S. cerevisiae, luminescence, secondary, dose response (AID 2388); assay type: functional, cell-based;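 also: yeast reporter cells carrying a calcineurin-responsive lacZ construct stimulated with calcium chloride; luminescent beta-galactosidase reporter signal in whole cells rather than isolated phosphatase activity; potency for inhibition where a drop in reporter signal means calcineurin blockade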
[10] = molecular target: ATP-dependent molecular chaperone HSP82 (Candida albicans (strain WO-1) (Yeast), UniProt C4YTQ8); test: steroid-induced GRE reporter decrease in yeast – S. cerevisiae, luminescence, Hsp90 inhibitor project, dose response (AID 2400); assay type: functional, cell-based;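 also: beta-galactosidase luminescence from glucocorticoid response element reporter as proxy for Hsp90 function; inhibitor potency where signal loss means Hsp90 inhibition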
[11] = molecular target: T1, Mannose-6-phosphate isomerase (Homo sapiens, UniProt P34949); test: MPI enzyme activity inhibition – biochemical, fluorescence intensity, coupled assay, primary screen (AID 1209)
T1 sequence (P34949 whole entry): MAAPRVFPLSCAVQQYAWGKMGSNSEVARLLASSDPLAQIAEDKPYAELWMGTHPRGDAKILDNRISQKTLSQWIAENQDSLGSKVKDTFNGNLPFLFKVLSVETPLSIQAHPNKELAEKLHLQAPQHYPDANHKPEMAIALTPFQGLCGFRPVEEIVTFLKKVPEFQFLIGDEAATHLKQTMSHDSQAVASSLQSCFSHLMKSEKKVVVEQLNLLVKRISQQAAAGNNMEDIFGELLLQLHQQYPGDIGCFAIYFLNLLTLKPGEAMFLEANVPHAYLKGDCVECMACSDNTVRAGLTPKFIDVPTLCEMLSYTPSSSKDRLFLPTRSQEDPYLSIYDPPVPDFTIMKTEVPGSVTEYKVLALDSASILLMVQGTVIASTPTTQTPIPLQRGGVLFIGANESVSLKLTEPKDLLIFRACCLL

[12] = molecular target: Induced myeloid leukemia cell differentiation protein Mcl-1 (Homo sapiens, UniProt Q07820); assay type: functional
[13] = molecular target: T1, Mannose-6-phosphate isomerase; test: MPI inhibition at elevated mannose 6-phosphate – biochemical, fluorescence intensity, high mannose 6-phosphate, primary screen (AID 1220)
Caspase-3 = Caspase-3 (Homo sapiens, UniProt P42574); assay type: functional;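 also: Dose-response selectivity test against caspase-3 for candidate inhibitors of sentrin-specific proteases (SENPs)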
[14] = molecular target: Sentrin-specific protease 7 (Homo sapiens, UniProt Q9BQF6); assay type: functional;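 also: Luminescence-based dose-response confirmation of ultra-high-throughput screening hits, measuring inhibition of SENP7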
[15] = molecular target: Sentrin-specific protease 6 (Homo sapiens, UniProt Q9GZR1); assay type: functional;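 also: Luminescence-based dose-response confirmatory assay of SENP6 inhibition, following up an ultra-high-throughput screen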
[16] = molecular target: T2, Sentrin-specific protease 8 (Homo sapiens, UniProt Q96LD8); assay type: functional;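 also: luminescence read-out of SENP8 inhibition, dose-response confirmation following an ultra-high-throughput screen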
T2 sequence (Q96LD8 whole entry): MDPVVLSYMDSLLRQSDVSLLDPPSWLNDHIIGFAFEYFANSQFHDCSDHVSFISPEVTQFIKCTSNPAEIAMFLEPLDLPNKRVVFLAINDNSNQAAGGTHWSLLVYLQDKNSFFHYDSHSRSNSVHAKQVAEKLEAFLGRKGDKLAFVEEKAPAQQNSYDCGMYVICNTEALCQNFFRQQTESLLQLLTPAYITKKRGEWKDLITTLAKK

[17] = Luminescence-based cell-based high throughput dose response assay to identify activators of the DAF-12 from the parasite S. stercoralis (ssDAF-12).; assay type: functional
[18] = molecular target: T3, Oxysterols receptor LXR-beta (Homo sapiens, UniProt P55055); test: LXR agonists, Gal4 luciferase reporter, dose response, counter-screen for ssDAF-12 agonist project, cell-based, luminescence, HEK293, S. stercoralis campaign (AID 720737); assay type: functional; conditions: read-out: IC50 (the source's name)
T3 sequence (P55055 whole entry): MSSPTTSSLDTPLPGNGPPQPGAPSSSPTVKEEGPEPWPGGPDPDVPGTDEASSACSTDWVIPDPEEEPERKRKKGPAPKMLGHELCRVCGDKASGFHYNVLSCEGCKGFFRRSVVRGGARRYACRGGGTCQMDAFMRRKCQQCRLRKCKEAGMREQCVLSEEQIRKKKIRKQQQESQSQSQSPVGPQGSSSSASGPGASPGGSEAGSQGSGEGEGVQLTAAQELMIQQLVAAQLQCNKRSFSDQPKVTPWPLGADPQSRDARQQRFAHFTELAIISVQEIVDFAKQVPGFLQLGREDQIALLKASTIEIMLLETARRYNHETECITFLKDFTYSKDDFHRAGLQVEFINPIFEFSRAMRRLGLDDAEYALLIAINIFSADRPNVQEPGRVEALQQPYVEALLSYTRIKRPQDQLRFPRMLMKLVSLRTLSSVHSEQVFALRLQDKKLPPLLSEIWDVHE

[19] = molecular target: T3, Oxysterols receptor LXR-beta; assay type: functional, cell-based

Sentrin-specific protease 7, sequence (Q9BQF6 whole entry): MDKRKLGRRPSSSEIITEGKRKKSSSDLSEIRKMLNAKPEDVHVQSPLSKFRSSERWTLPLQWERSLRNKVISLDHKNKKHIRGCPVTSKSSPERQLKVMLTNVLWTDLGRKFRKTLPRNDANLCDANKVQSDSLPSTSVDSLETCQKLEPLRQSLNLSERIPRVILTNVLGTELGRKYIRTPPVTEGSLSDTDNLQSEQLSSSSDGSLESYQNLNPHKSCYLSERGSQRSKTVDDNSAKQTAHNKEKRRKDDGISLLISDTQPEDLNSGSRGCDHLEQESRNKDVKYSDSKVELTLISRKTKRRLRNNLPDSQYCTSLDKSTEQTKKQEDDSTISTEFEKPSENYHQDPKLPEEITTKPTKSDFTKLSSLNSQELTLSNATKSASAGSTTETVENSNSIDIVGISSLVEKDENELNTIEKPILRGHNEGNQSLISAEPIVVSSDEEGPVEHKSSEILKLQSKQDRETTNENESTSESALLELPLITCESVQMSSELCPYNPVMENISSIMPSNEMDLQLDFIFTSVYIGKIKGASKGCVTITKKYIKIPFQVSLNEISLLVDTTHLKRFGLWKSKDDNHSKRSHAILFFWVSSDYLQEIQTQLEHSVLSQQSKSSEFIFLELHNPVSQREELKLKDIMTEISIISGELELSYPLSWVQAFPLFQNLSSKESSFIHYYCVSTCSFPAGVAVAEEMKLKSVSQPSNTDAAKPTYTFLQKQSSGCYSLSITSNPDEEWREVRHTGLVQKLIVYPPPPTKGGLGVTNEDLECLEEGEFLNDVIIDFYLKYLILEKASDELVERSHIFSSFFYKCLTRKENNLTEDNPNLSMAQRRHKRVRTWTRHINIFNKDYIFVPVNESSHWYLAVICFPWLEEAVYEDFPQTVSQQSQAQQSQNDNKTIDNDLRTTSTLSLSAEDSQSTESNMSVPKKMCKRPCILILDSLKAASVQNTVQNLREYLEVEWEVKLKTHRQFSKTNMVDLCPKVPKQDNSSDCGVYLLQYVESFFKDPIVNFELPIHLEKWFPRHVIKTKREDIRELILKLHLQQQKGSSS
Caspase-3, sequence (P42574 29-175 limits assumed): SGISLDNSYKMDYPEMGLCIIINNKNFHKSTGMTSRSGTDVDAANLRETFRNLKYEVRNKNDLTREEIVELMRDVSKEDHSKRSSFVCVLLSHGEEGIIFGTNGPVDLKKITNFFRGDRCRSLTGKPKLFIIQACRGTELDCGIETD
Caspase-3, sequence (P42574 176-277 limits assumed): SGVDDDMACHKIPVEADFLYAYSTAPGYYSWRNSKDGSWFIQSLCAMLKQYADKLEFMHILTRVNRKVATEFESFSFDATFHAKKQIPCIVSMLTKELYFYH
Sentrin-specific protease 6, sequence (Q9GZR1 whole entry): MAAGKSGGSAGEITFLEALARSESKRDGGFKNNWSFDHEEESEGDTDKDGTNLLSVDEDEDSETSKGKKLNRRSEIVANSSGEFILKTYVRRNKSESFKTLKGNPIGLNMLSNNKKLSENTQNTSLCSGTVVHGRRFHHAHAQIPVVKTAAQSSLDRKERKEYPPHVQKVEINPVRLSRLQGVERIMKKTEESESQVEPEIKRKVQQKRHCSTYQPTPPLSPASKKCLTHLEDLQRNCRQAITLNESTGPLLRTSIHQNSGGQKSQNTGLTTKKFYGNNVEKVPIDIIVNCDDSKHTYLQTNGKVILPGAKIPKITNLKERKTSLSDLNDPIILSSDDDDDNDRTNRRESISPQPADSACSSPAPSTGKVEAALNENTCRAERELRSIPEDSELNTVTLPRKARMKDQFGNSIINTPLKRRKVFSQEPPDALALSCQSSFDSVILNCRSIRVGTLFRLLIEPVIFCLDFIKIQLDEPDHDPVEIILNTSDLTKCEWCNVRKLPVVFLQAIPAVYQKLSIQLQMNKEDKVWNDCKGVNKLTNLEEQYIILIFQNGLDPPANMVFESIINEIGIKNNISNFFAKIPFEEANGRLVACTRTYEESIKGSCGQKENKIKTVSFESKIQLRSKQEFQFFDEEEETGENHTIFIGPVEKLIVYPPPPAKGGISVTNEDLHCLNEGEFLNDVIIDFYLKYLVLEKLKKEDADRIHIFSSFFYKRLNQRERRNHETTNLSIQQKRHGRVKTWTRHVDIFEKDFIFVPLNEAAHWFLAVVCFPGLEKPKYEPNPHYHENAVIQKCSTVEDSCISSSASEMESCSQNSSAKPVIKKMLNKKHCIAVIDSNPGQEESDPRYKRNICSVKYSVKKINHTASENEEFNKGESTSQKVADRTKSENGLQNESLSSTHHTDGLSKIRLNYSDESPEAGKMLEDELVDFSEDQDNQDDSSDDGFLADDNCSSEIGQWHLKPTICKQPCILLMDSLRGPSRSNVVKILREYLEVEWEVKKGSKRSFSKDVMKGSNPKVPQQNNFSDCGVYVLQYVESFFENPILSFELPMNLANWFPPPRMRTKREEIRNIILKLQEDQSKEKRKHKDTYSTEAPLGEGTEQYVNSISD
Serine/threonine-protein phosphatase, sequence (B9W6M3 whole entry): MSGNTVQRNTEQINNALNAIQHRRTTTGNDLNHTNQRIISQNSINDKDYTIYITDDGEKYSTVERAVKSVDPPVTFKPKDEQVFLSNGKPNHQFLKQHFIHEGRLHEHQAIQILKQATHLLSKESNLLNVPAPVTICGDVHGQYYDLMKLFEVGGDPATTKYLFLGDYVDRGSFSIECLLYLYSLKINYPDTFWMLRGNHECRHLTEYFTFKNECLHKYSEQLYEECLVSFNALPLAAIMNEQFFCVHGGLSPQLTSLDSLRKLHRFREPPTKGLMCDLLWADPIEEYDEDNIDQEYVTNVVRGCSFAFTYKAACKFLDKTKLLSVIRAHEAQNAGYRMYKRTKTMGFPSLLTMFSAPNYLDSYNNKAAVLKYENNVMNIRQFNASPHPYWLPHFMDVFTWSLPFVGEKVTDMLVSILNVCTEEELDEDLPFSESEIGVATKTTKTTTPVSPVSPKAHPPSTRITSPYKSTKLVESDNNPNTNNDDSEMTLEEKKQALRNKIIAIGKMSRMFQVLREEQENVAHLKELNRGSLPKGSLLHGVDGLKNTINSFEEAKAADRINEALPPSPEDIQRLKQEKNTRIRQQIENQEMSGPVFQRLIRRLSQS
ATP-dependent molecular chaperone HSP82, sequence (C4YTQ8 whole entry): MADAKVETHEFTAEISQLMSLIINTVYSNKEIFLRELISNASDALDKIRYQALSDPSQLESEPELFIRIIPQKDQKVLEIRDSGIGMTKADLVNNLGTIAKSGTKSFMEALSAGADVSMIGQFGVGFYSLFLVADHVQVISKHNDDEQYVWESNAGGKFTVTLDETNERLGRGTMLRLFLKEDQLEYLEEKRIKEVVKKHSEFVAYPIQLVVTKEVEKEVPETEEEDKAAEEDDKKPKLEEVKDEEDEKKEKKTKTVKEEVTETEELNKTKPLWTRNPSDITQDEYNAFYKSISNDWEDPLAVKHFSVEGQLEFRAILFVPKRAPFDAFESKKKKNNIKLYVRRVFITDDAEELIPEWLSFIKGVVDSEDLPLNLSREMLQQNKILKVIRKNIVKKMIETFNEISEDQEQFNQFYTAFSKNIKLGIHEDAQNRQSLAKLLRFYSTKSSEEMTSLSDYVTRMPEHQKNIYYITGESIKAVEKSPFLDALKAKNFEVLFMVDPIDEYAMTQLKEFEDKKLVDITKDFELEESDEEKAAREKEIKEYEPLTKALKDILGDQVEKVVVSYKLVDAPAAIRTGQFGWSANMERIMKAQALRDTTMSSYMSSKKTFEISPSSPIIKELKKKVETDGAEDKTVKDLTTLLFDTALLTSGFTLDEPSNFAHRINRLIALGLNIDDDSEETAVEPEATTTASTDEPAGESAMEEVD
Induced myeloid leukemia cell differentiation protein Mcl-1, sequence (Q07820 whole entry): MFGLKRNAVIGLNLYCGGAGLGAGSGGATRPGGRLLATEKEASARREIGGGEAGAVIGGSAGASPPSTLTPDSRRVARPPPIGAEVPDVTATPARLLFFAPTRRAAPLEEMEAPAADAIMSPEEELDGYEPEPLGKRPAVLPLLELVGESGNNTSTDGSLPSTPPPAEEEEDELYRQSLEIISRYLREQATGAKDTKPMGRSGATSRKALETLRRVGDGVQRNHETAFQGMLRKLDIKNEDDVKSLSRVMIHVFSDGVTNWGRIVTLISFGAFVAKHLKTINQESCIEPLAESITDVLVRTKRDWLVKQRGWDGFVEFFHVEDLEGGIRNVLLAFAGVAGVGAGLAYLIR

SMILES: Cc1ccccc1Nc1nc(N)nc(CCl)n1
- EC50 (BJ [1]): 0.369 µM (inconclusive)
- EC50 (BJ [2]): 7.39 µM (inconclusive)
- EC50 (BJ [3]): > 150 µM (not active)
- EC50 [4]: 4.85 µM (active)
- EC50 (BJ [5]): 13.6 µM (active)

SMILES: Cc1c(Cl)ccc2c1NC(=O)[C@]21N[C@@H](Cc2ccccc2)[C@H]2C(=O)N(c3ccc(F)cc3)C(=O)[C@H]21
- EC50 [6]: > 150 µM (inactive)
- EC50 [7]: 0.206 µM (active)
- CC50 [8]: 33 µM (active)
- EC50 [9]: > 180 µM (inactive)
- EC50 [10]: > 160 µM (inactive)

SMILES: COc1ccc(-n2nc3cc(C)c(N)c(Br)c3n2)cc1
- IC50 [11]: > 50 µM (not active)
- IC50 [12]: 2.53 µM (active)
- IC50 [13]: > 50 µM (not active)
- IC50 (Caspase-3): 35.5 µM (active)
- IC50 [14]: 5.86 µM (active)
- IC50 [15]: 13.7 µM (active)
- IC50 [16]: 41.3 µM (active)
- IC50 [17]: > 67.5 µM (inactive)
- EC50 [18]: > 67.5 µM (inactive)
- EC50 [19]: > 67.5 µM (inactive)
- EC50 (cells): > 67.5 µM (inactive)

SMILES: Cc1ccc(OCc2nc(-c3ccccc3)no2)cc1
- IC50 (Caspase-3): 42.1 µM (active)
- IC50 [14]: 11.6 µM (active)
- IC50 [15]: 47.1 µM (active)
- IC50 [16]: 69.9 µM (active)
